According to patent publication US4593104A, “2-halo-N-(azole-1-yl-methyl)-substituted acetanilides” (BASF Aktiengesellschaft, priority 1976, dated 1986):
“And” between values parts separate entries of the source, which are not always exact repeats. Equal values may be shown once.

Tests used:
Alopec. myosur. [1] = test: preemergence treatment in the greenhouse, % damage; type: in vivo
Method in brief: (§1)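 Test species were sown separately in sandy loam and held at 25–40 °C (heat-loving) or 15–30 °C (temperate). Actives in water went onto the soil surface immediately (preemergence) or onto 3–10 cm plants (postemergence). A 0–100 scale rates emergence loss or destruction over 4–6 weeks.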

Amar. retro. [2] = test: preemergence treatment in the greenhouse, % damage; type: in vivo
Method in brief: as §1

Bromus spp. = test: preemergence treatment in the greenhouse, % damage; type: in vivo
Method in brief: as §1

Chrys. seget. [3] = test: preemergence treatment in the greenhouse, % damage; type: in vivo
Method in brief: as §1

Cyp. diff. = test: preemergence treatment in the greenhouse, % damage; type: in vivo
Method in brief: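 Preemergence: active sprayed onto the soil surface immediately after sowing; pots sprinkler-irrigated and covered with transparent hoods until plants rooted. Postemergence: unhooded plants sprayed at 3–10 cm. Both run 4–6 weeks in greenhouse; damage 0 = none, 100 = no emergence or total kill of visible parts.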

Echin. c.g. [4] = test: preemergence treatment in the greenhouse, % damage; type: in vivo
Method in brief: as §1

Euph. gen. = test: preemergence treatment in the greenhouse, % damage; type: in vivo
Method in brief: as §1

Matric. spp. [5] = test: preemergence treatment in the greenhouse, % damage; type: in vivo
Method in brief: as §1

Poa annua = test: preemergence treatment in the greenhouse, % damage; type: in vivo
Method in brief: as §1

Setaria spp. [6] = test: preemergence treatment in the greenhouse, % damage; type: in vivo
Method in brief: as §1

Solanum nigrum = test: preemergence treatment in the greenhouse, % damage; type: in vivo
Method in brief: as §1

Sorgh. halep. = test: preemergence treatment in the greenhouse, % damage; type: in vivo
Method in brief: as §1

Stell. med. [7] = test: preemergence treatment in the greenhouse, % damage; type: in vivo
Method in brief: as §1

Zea mays = test: preemergence treatment in the greenhouse, % damage; type: in vivo
Method in brief: as §1

Glyc. max [8] = test: preemergence treatment in the greenhouse, % damage; type: in vivo, Glycine max; details: 0.25 kg/ha
Method in brief: as §1

Gossyp. hirs. = test: preemergence treatment in the greenhouse, % damage; type: in vivo, Gosspyium hirsutum
Method in brief: as §1

Cyper. escul. [9] = test: preemergence treatment in the greenhouse, % damage; type: in vivo, Cyperus esculentus
From the text: (§2) The vessels employed were plastic flowerpots having a volume of 300 cm^3; the substrate was a sandy loam containing about 1.5% humus. The seeds of the test plants (see Table 1) were sown shallow, and separated according to species. In the case of Cyperus esculentus, pregerminated tubers were planted. In the preemergence treatment, the active ingredients were then immediately applied to the surface of the soil. They were suspended or emulsified in water as the vehicle, and sprayed through atomizing nozzles. After the agents had been applied, the vessels were lightly sprinkler-irrigated to set germination and growth going, and to activate the chemical agents. The vessels were then covered with transparent plastic hoods until the plants had taken root. This cover ensured uniform germination of the test plants (to the extent that this was not impaired by the chemicals), and prevented readily volatile substances from evaporating.
(§3) For postemergence treatment, the plants were first grown to a height of from 3 to 10 cm, depending on their habit, before treated. Hoods were not placed on the pots. The experiments were set up in the greenhouse, hotter areas (25° to 40° C.) being preferred for heat-loving species, and 15° to 30° C. for plants from moderate climates. The experiments were carried out for from 4 to 6 weeks. During this period the plants were tended and their reaction to the various treatments was assessed. The following tables contain the substances investigated, the application rates in kg/ha of active ingredient, and the test plant species. Assessments were made on a 0 to 100 scale, 0 denoting no damage or normal emergence, and 100 denoting no emergence or complete destruction of at least the visible plant parts.

Sorgh. bicol. = test: preemergence treatment in the greenhouse, % damage; type: in vivo, Sorghum bicolor
From the text: as §2, §3

Alopec. myosur. [10] = test: preemergence application in the open, % damage; type: in vivo; details: 2.0 kg/ha
Experimental: (§4) The experiments were carried out on small plots. The soil was a sandy loam having a pH of from 5 to 6 and containing from 1 to 1.5% humus. The treatment was preemergence, the active ingredients being applied immediately or at the latest 3 days after sowing. The crop plants were sown in rows. The weed flora was made up of the most widely varying species and was natural; the weed flora depended on the time of the year and in part on the crop (e.g., spring-germinating, summer-germinating). The substances were emulsified or suspended in water as the vehicle, and applied by means of a motor-driven plot spray mounted on a hitch. When no rain fell, the plots were watered to ensure germination and growth of the crop plants and weeds. All the experiments were run for several weeks. Over this period, assessments were made at certain intervals on the 0 to 100 scale.

Amar. retro. [11] = test: preemergence application in the open, % damage; type: in vivo; details: 1,0 kg/ha
Experimental: as §4

Anth./Matric. = test: preemergence application in the open, % damage; type: in vivo; details: 2.0 kg/ha
Experimental: as §4

Brassica napus = test: preemergence application in the open, % damage; type: in vivo; details: 2.0 kg/ha
Experimental: as §4

Chenop. spp. = test: preemergence application in the open, % damage; type: in vivo
Experimental: as §4

Echin. c.g. [12] = test: preemergence application in the open, % damage; type: in vivo
Experimental: as §4

Galins. spp. = test: preemergence application in the open, % damage; type: in vivo
Experimental: as §4

Stellaria media = test: preemergence application in the open, % damage; type: in vivo; details: 2.0 kg/ha
Experimental: as §4

Glyc. max [13] = test: preemergence application in the open, % damage; type: in vivo, Glycine max
Experimental: as §4

Alopec. myosur. [14] = test: postemergence application in the greenhouse, % damage; type: in vivo
From the text: as §2, §3

Avena fat. = test: as above; type: in vivo
From the text: as §2, §3

Chrys. seget. [15] = test: as above; type: in vivo
From the text: as §2, §3

Matric. spp. [16] = test: as above; type: in vivo
From the text: as §2, §3

Setaria spp. [17] = test: as above; type: in vivo
From the text: as §2, §3

Stell. med. [18] = test: as above; type: in vivo
From the text: as §2, §3

Cyper. escul. [19] = test: as above; type: in vivo, Cyperus esculentus
From the text: as §2, §3

[20] = one value printed for two rates (0.25 0.5 kg/ha)

Structure (SMILES): CCc1cccc(CC)c1N(COC)C(=O)CCl [prior art, 2-chloro-2',6'-diethyl-N-methoxymethyl-acetanilide, reference compound]
- % damage (Alopec. myosur. [1]; 0.25 kg/ha): 40%
- % damage (Alopec. myosur. [1]; 0.5 kg/ha): 80%
- % damage (Alopec. myosur. [1]; 1.0 kg/ha): 80%
- % damage (Amar. retro. [2]; 0.25 kg/ha): 72% and 80%
- % damage (Amar. retro. [2]; 0.5 kg/ha): 100% and 80%
- % damage (Amar. retro. [2]; 2.0 kg/ha): 100% and 50%
- % damage (Amar. retro. [2]; [20]): 75%
- % damage (Bromus spp.; 0.125 kg/ha): 50%
- % damage (Bromus spp.; 0.25 kg/ha): 80% and 88%
- % damage (Bromus spp.; 0.5 kg/ha): 90%
- % damage (Bromus spp.; 1.0 kg/ha): 50%
- % damage (Bromus spp.; 2.0 kg/ha): 70%
- % damage (Chrys. seget. [3]; 0.25 kg/ha): 30%
- % damage (Chrys. seget. [3]; 0.5 kg/ha): 0%
- % damage (Cyp. diff.; 0.125 kg/ha): 65%
- % damage (Cyp. diff.; 0.25 kg/ha): 70% and 100%
- % damage (Cyp. diff.; 0.5 kg/ha): 100%
- % damage (Cyp. diff.; 1.0 kg/ha): 100%
- % damage (Cyp. diff.; [20]): 65%
- % damage (Echin. c.g. [4]; 0.25 kg/ha): 95%
- % damage (Echin. c.g. [4]; 0.5 kg/ha): 65% and 100%
- % damage (Echin. c.g. [4]; 2.0 kg/ha): 95% and 90%
- % damage (Euph. gen.; 0.5 kg/ha): 25% and 20% and 30%
- % damage (Euph. gen.; 1.0 kg/ha): 45% and 50%
- % damage (Euph. gen.; 2.0 kg/ha): 100%
- % damage (Matric. spp. [5]; 0.25 kg/ha): 50%
- % damage (Matric. spp. [5]; 0.5 kg/ha): 80%
- % damage (Matric. spp. [5]; 1.0 kg/ha): 90%
- % damage (Poa annua; 0.125 kg/ha): 80%
- % damage (Poa annua; 0.5 kg/ha): 15%
- % damage (Setaria spp. [6]; 0.25 kg/ha): 70%
- % damage (Setaria spp. [6]; 0.5 kg/ha): 60% and 90%
- % damage (Setaria spp. [6]; 1.0 kg/ha): 90% and 95% and 100%
- % damage (Setaria spp. [6]; 2.0 kg/ha): 100%
- % damage (Solanum nigrum; 0.25 kg/ha): 50%
- % damage (Solanum nigrum; 0.5 kg/ha): 80% and 95%
- % damage (Solanum nigrum; 1.0 kg/ha): 100%
- % damage (Solanum nigrum; 2.0 kg/ha): 100%
- % damage (Sorgh. halep.; 0.125 kg/ha): 40%
- % damage (Sorgh. halep.; 0.25 kg/ha): 38% and 50% and 30%
- % damage (Sorgh. halep.; 0.5 kg/ha): 50% and 40%
- % damage (Sorgh. halep.; 1.0 kg/ha): 70%
- % damage (Stell. med. [7]; 0.25 kg/ha): 20%
- % damage (Stell. med. [7]; 0.5 kg/ha): 70%
- % damage (Stell. med. [7]; 1.0 kg/ha): 70%
- % damage (Zea mays; 1.0 kg/ha): 0%
- % damage (Zea mays; 2.0 kg/ha): 0%
- % damage (Glyc. max [8]): 10%
- % damage (Gossyp. hirs.; 0.25 kg/ha): 0%
- % damage (Gossyp. hirs.; 0.5 kg/ha): 0%
- % damage (Gossyp. hirs.; 1.0 kg/ha): 20% and 10%
- % damage (Gossyp. hirs.; 2.0 kg/ha): 40%
- % damage (Cyper. escul. [9]; 0.5 kg/ha): 40%
- % damage (Cyper. escul. [9]; 1.0 kg/ha): 50%
- % damage (Cyper. escul. [9]; 2.0 kg/ha): 60%
- % damage (Sorgh. bicol.; 1.0 kg/ha): 0%
- % damage (Sorgh. bicol.; 2.0 kg/ha): 0%
- % damage (Alopec. myosur. [10]): 65%
- % damage (Amar. retro. [11]): 80%
- % damage (Anth./Matric.): 53%
- % damage (Brassica napus): 5%
- % damage (Chenop. spp.; 0,1 kg/ha): 10%
- % damage (Chenop. spp.; 1,0 kg/ha): 13%
- % damage (Echin. c.g. [12]; 0,1 kg/ha): 65%
- % damage (Echin. c.g. [12]; 1,0 kg/ha): 73%
- % damage (Galins. spp.; 0,1 kg/ha): 30%
- % damage (Galins. spp.; 1,0 kg/ha): 55%
- % damage (Stellaria media): 15%
- % damage (Glyc. max [13]; 0,1 kg/ha): 0%
- % damage (Glyc. max [13]; 1,0 kg/ha): 0%
- % damage (Alopec. myosur. [14]; 1.0 kg/ha): 60%
- % damage (Alopec. myosur. [14]; 2.0 kg/ha): 60%
- % damage (Avena fat.; 1.0 kg/ha): 50%
- % damage (Avena fat.; 2.0 kg/ha): 70%
- % damage (Chrys. seget. [15]; 1.0 kg/ha): 15%
- % damage (Chrys. seget. [15]; 2.0 kg/ha): 15%
- % damage (Matric. spp. [16]; 1.0 kg/ha): 50%
- % damage (Matric. spp. [16]; 2.0 kg/ha): 50%
- % damage (Setaria spp. [17]; 1.0 kg/ha): 68%
- % damage (Setaria spp. [17]; 2.0 kg/ha): 68%
- % damage (Stell. med. [18]; 1.0 kg/ha): 0%
- % damage (Stell. med. [18]; 2.0 kg/ha): 30%
- % damage (Cyper. escul. [19]; 1.0 kg/ha): 42%
- % damage (Cyper. escul. [19]; 2.0 kg/ha): 55%
